# Source: article PMC8670242, “Functional Characterization and Structural Insights Into Stereoselectivity of Pulegone Reductase in Menthol Biosynthesis” (Frontiers in Plant Science, 2021)
# Target: T1, ArPR (Agastache rugosa, UniProt A0A977TNC5)
# T1 construct: pET28a (BamHI/SacI) His-tag fusion, E. coli BL21(DE3), Ni-NTA and gel filtration
# Assay: in vitro reduction, GC
# Type: biochemical
# Conditions: NADPH
# T1 sequence (A0A977TNC5 1-343): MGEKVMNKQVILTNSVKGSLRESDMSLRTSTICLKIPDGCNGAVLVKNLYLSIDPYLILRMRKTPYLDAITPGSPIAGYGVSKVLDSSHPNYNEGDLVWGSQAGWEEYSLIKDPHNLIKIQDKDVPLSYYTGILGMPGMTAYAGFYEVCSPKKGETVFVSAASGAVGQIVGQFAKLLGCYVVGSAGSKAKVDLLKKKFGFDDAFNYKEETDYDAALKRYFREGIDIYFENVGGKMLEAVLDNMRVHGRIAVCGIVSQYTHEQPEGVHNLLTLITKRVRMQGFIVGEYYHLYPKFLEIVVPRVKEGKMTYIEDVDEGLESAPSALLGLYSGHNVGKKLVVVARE
smiles,measurement,value
CC(C)=C1CC[C@H](C)CC1=O [(−)-pulegone],"in vitro reduction, GC",showed a higher preference for (−)-pulegone over (+)-pulegone
